In patent US12636385B2, “Selective ligands for tau aggregates” (Sentonix, Inc., priority 2018, dated 2026):

Legend:
[1] = molecular target: T1, 0N4R Tau fibrils (Homo sapiens, UniProt P10636); assay: ^3H-THK5117 competition binding to tau fibrils in vitro; settings: for Selectivity for tau relative to Aβ: calculated from [^3H]-THK5117 tau and [^3H]-AZD2184 Aβ assays
T1 construct: made in house
Experimental: Preparation of recombinant 0N4R Tau fibrils was performed as previously described in Morozova, O. A., Biochemistry (2013), Vol., 52(40), pages 6960-6967. Competition binding experiments to 0N4R Tau fibrils were performed by incubating increasing concentrations [10^−10-10^−6 M] of the Example compounds of the invention, or the known tau specific ligand PBB3 (PBB3 was synthesized as previously described in M. Maruyama, et al, Neuron 2013, 79, 1094-1108) or MK6240 (Novandi Chemistry AB), in the presence of 3 nM of the known tau ligand [^3H]-THK5117 (Novandi Chemistry) and 0.2 mM 0N4R tau fibrils in binding buffer (50 mM Tris-HCl, pH 7.4, 0.1% BSA) for 1 h in the dark, and at 22° C. The incubation was terminated by filtration through a Whatman GF/B glass filter (Whatman International, Kent, UK) using a Brandel cell harvester. The filter was then washed rapidly four times with 3 mL of ice-cold wash buffer (5 mM Tris-HCl, 0.25 mM NaCl, 5% EtOH), and equilibrated for 1 h in scintillation vials containing 5 mL of Ultima Gold scintillation fluid before being analysed using a Liquid Scintillation Analyzer.
The results are shown in Table 2 in the column labeled “Tau IC50”.
Relative selectivity for tau compared to Aβ for the exemplified compounds was calculated using the results for the [^3H]-THK5117 tau and [^3H]-AZD2184 Aβ assays described above. The calculated results are shown in Table 2 in the column labeled “Selectivity for tau relative to Aβ”.

[2] = molecular target: T1, 0N4R Tau fibrils; assay: In vitro competitive binding to 0N4R tau fibrils in the presence of [^3H]-Example Compound 68 (FIG. 1)
[3] = test system: tau plaques; assay: Autoradiography on brain sections from CBD and PSP patients; assay type: binding, human; settings: 3 nM radiotracer, with or without 1 μM unlabeled compound; compared with antibody AT8
Experimental: To examine binding of the example compounds of the present invention to tau plaques in vitro, autoradiography was carried out on brain sections from corticobasal degeneration (CBD) and progressive supranuclear palsy (PSP) patients incubated with [^3H]-Example Compound 72 or [^3H]-Example Compound 48 in the presence or absence of unlabeled Example Compound […] (1 μM) or unlabeled Example Compound 48 (1 μM), respectively. The experiment was performed as previously described in Johnson, A. E., et al, Journal of Neurochemistry (2009), Vol. 108, pages 1177-1186, but using post mortem cortical samples from corticobasal degeneration (CBD) and progressive supranuclear palsy (PSP) patients instead of from Alzheimer's disease patients.
Briefly, brain sections from the cortical samples were incubated for 30 min at 22° C. in 50 mN Tris buffer (pH 7.4) together with 3 nM [^3H]-Example Compound 72 or 3 nM [^3H]-Example Compound 48 in the presence of absence of on unlabeled Example Compound 72 (1 μM) or unlabeled Example Compound 48 (1 μM), respectively. The sections were then washed (3×10 min) in Tris buffer (1° C.) followed by a rinse in deionized water (1° C.) and air-dried at 22° C. in front of a fan. Binding was then measured and analysed as described in Johnson, A. E., et al.
The tau pathology was confirmed on adjacent brain sections by immunohisto-chemistry (IHC) using Phospho-Tau (Ser202, Thr205) Monoclonal Antibody (AT8) as previously as described in Biernat, J., et al, EMBO J. (1992) Vol. 4, pages 1593-1597. AT8 was obtained from Thermo Fisher Scientific (Phospho-PHF-Tau, Thermo Ficher Scientific, Catalog No. MN1020, Stock cone: 0.2 mg/ml, Working solution: 1/100).

[4] = molecular target: T2, Aβ(1-42) amyloid fibrils (Homo sapiens, UniProt P05067); assay: ^3H-AZD2184 competition binding to Aβ(1-42) fibrils in vitro; settings: [^3H]-AZD2184, Aβ(1-42) amyloid fibrils; average if run more than once
T2 construct: Aβ(1-42) amyloid fibrils
Experimental: Competition binding experiments to Aβ(1-42) amyloid fibrils were performed as previously described in Jureus, A., et al, Journal of Neurochemistry (2010), Vol. 114, pages 784-794 for the Example compounds of the invention indicated in Table 2, or the known tau specific ligand PBB3 (PBB3 was synthesized as previously described in M. Maruyama, et al, Neuron 2013, 79, 1094-1108).
The results are shown in Table 2 in the column labeled “Aβ IC50”.

[5] = Rat brain cassette exposure study; assay type: in vivo, Sprague Dawley rat; settings: intravenous cassette dosing
Experimental: The in vivo pharmacokinetic characteristics of the example compounds of the invention were compared directly with the known beta-amyloid specific ligand AZD2184 (Johnson, A. E., et al, Journal of Neurochemistry (2009), Vol. 108, pages 1177-1186). Rat brain exposure to three compounds of the invention and AZD2184 was measured by intravenous cassette dosing three test compound: Example Compound 43, Example Compound 47 and Example Compound 48; and AZD2184 (Novandi Chemistry) (concentration of 0.25 μmol/mL each) using the procedure previously described in Johnson, A. E., et al, Journal of Neurochemistry (2009), Vol. 108, pages 1177-1186. 6 male Sprague Dawley rat were used in the experiments, three rats per time point (2 min and 30 min).

[6] = 3 nM [^3H]-THK5117, recombinant 0N4R tau fibrils, average if run more than once

T2 sequence (P05067 672-713): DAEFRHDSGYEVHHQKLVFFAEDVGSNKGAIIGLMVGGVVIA
T1 sequence (P10636 1-383 isoform P10636-6): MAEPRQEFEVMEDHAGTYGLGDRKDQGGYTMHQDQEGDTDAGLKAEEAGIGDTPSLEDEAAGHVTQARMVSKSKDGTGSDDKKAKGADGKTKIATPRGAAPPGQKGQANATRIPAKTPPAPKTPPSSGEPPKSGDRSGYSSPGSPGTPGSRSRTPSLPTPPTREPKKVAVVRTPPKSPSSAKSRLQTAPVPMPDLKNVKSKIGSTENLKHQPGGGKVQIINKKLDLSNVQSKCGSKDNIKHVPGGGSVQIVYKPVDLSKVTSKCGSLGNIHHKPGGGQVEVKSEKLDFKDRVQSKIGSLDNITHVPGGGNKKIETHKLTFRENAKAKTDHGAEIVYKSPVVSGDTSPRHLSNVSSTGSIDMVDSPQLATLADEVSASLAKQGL
tau plaques, sequence (P10636 561-708 limits assumed): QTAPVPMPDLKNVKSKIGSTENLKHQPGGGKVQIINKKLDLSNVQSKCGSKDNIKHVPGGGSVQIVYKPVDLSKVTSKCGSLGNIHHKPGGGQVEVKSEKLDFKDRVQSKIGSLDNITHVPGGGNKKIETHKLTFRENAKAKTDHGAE

Compound	Selectivity for tau relative to Aβ [1]	IC50 [1, 6]	IC50 [4]	further results
CNc1ccc(/C=C/C=C/c2nc3ccc(O)cc3s2)cn1 [PBB3, reference compound]	4	–	–	tau binding site shared (competition with [^3H]-Example Compound 68) [2]: share the same binding site
Nc1c(F)ccc2cnc(-n3ccc4ccncc43)cc12 [MK-6240, reference compound]	–	> 1000 nM	–	Tau IC50 [1, 6]: inactive; tau binding site shared (competition with [^3H]-Example Compound 68) [2]: does not share the same binding site
COc1ccc2[nH]c(-c3ccc(N4CCC(C(N)=O)CC4)nc3F)cc2c1 [Example Compound 68, 1-[6-Fluoro-5-(5-methoxy-1H-indol-2-yl)pyridin-2-yl]piperidine-4-carboxamide]	–	–	–	tau binding site shared (competition with [^3H]-Example Compound 68) [2]: share the same binding site
[^3H] labeled 2-(2-fluoro-6-{4-[hydroxymethyl]piperidin-1-yl}pyridin-3-yl)-1H-indol-5-ol [[^3H]-Example Compound 48]	–	–	–	radiotracer binding in CBD brain tissue [3]: displaceable binding in CBD brain tissue that correlates with the tau-specific antibody AT8; radiotracer binding in PSP brain tissue [3]: displaceable binding in PSP brain tissue that correlates with the tau-specific antibody AT8
COc1ccc2[nH]c(-c3ccc(N4CCC(CO)CC4)nc3F)cc2c1 [Compound 47]	17	2 nM	33 nM	–
FCCOCCOCCOC1CCN(c2ccc(-c3nc4ccccc4s3)cn2)CC1 [Compound 6]	0.2	16 nM	3 nM	–
OCCC1CCN(c2ccc(-c3nc4ccccc4s3)cn2)CC1 [Compound 7]	2.1	7 nM	15 nM	–
OCCC1CCN(c2ccc(-c3cc4ccccc4o3)c(F)n2)CC1 [Compound 46]	8.8	6 nM	53 nM	–
OCC1CCN(c2ccc(-c3nc4ccc(OCCF)cc4o3)cn2)CC1 [Compound 62, (1-{5-[6-(2-Fluoroethoxy)-1,3-benzoxazol-2-yl]pyridin-2-yl}piperidin-4-yl)methanol]	0.4	22 nM	9 nM	–
OCC1CCN(c2ccc(-c3cc4ccccc4o3)c(F)n2)CC1 [Compound 45]	4.7	9 nM	42 nM	–
O=C(NCCO)c1ccc2nc(-c3cnc(N4CCC(CCF)CC4)nc3)sc2c1 [Compound 60]	2.5	11 nM	28 nM	–
Oc1ccc2nc(-c3cnc(N4CCC(CCF)CC4)nc3)sc2c1 [Compound 39]	33	1.5 nM	50 nM	–
COc1ccc2nc(-c3ccc(N4CCC(CCO)CC4)nc3)sc2c1 [Compound 21]	14	5 nM	70 nM	–
COc1ncc2cc(-c3ccc(N4CCC(CO)CC4)nc3F)[nH]c2n1 [Compound 76, [1-(6-Fluoro-5-{2-methoxy-7H-pyrrolo[2,3-d]pyrimidin-6-yl}pyridin-2-yl)piperidin-4-yl]methanol]	36	9 nM	322 nM	–
OCCC1CCN(c2ncc(-c3nc4ccc(O)cc4s3)cn2)CC1 [Compound 38]	42	6 nM	250 nM	–
CCOC(=O)C1CCN(c2ccc(-c3cc4cc(O)ccc4[nH]3)c(F)n2)CC1 [Compound 65]	22	2 nM	44 nM	–

Compound	Selectivity for tau relative to Aβ [1]	IC50 [1, 6]	IC50 [4]	further results
N#Cc1ccc2nc(-c3cnc(N4CCC(CCO)CC4)nc3)sc2c1 [Compound 40]	12	6 nM	70 nM	–
COc1ccc2nc(-c3ccc(N4CCC(OCCO)CC4)nc3)sc2c1 [Compound 23]	1	4 nM	4 nM	–
COc1ccc2[nH]c(-c3ccc(N4CCC(C(N)=O)CC4)nc3F)cc2c1 [Compound 68]	10	7 nM	72 nM	–
OC1CCN(c2ncc(-c3cc4ccccc4o3)cn2)CC1 [Compound 32]	1.5	43 nM	66 nM	–
FCCOCCOCCOC1CCN(c2ncc(-c3cc4ccccc4o3)cn2)CC1 [Compound 33]	0.2	28 nM	6 nM	–
COc1ccc2[nH]c(-c3ccc(N4CCC(CO)CC4)nc3F)cc2c1 [Example Compound 47, {1-[6-Fluoro-5-(5-methoxy-1H-indol-2-yl)pyridin-2-yl]piperidin-4-yl}methanol]	–	–	–	clearance from normal rat brain tissue ([5]; 2 min and 30 min): rapidly cleared; half-life ([5]; male, Sprague Dawley, rat, brain, samples at 2 min and 30 min, read-out: calculated half-life (t1/2) in rat brain tissue): 15.8 min
OCC1CCN(c2ncc(-c3nc4ccc(OCCF)cc4s3)cn2)CC1 [Compound 58]	6.2	6 nM	37 nM	–
NC(=O)c1ccc2nc(-c3cnc(N4CCC(CCF)CC4)nc3)sc2c1 [Compound 43]	18	4 nM	72 nM	–
OCCC1CCN(c2ccc(-c3cc4ccccc4o3)cn2)CC1 [Compound 27]	4.9	7 nM	34 nM	–
OCC1CCN(c2ccc(-c3cc4cc(O)ccc4[nH]3)c(F)n2)CC1 [Compound 48]	37	5 nM	187 nM	–
COc1ccc2nc(-c3cnc(N4CCC(CCF)CC4)nc3)cn2c1 [Compound 53]	2.6	14 nM	37 nM	–
COc1ccc2nc(-c3ccc(N4CCC(CCOCCOCCOCCF)CC4)nc3)sc2c1 [Compound 22]	1	4 nM	4 nM	–
FCCCCOCC1CCN(c2ccc(-c3nc4ccccc4s3)cn2)CC1 [Compound 3]	3.9	11 nM	43 nM	–
OCC1CCN(c2ccc(-c3nc4ccc(OCCF)cc4s3)cn2)CC1 [Compound 56]	1.5	2 nM	3 nM	–
COc1ccc2nc(-c3cnc(N4CCC(CCOCCOCCOCCF)CC4)nc3)sc2c1 [Compound 26]	1.6	5 nM	8 nM	–
FCCC1CCN(c2ncc(-c3cc4ccccc4o3)cn2)CC1 [Compound 30]	2.1	12 nM	25 nM	–
